US11078216B2, “Bisaryl amides as NRF2 activators” (GLAXOSMITHKLINE INTELLECTUAL PROPERTY DEVELOPMENT LIMITED, priority 2016, dated 2021)

System: NRF2 (NQO1 activity as marker for NRF2 activation), BEAS-2B cells
Assay: BEAS-2B NQO1 MTT Assay
Format: cell-based
Conditions: Homo sapiens, EC50 of NQO1 specific activity induction, 48 hours incubation, read-out: EC50
Method in brief: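 BEAS-2B cells were exposed to compound for 48 h at 37° C, 5% CO2, then lysed. NQO1 activity was measured kinetically by MTT reduction at 570 nm over 30 minutes; EC50 came from 3-parameter fit of Delta OD/min versus log concentration.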

Structure (SMILES)	EC50 [nM]
CCCn1cc(CC[C@@H](c2ccc(C)c(CN3C[C@@H](CC)Oc4ccccc4S3(=O)=O)c2)C(C)(C)C(=O)Nc2cccnc2)nn1 [Example 82, (S)-3-(3-(((R)-4-Ethyl-1,1-dioxido-3,4-dihydro-2H-benzo[b][1,4,5]oxathiazepin-2-yl)methyl)-4-methylphenyl)-2,2-dimethyl-5-(1-propyl-1H-1,2,3-triazol-4-yl)-N-(pyridin-3-yl)pentanamide]	100 to 1000
CCCn1cc(CC[C@H](c2ccc(C)c(CN3C[C@@H](CC)Oc4ccccc4S3(=O)=O)c2)C(C)(C)C(=O)Nc2cccnc2)nn1 [Example 83, (R)-3-(3-(((R)-4-Ethyl-1,1-dioxido-3,4-dihydro-2H-benzo[b][1,4,5]oxathiazepin-2-yl)methyl)-4-methylphenyl)-2,2-dimethyl-5-(1-propyl-1H-1,2,3-triazol-4-yl)-N-(pyridin-3-yl)pentanamide]	100 to 1000
CC[C@@H]1CN(Cc2cc([C@@H](c3ccc4c(nnn4C)c3C)C(C)(C)C(=O)Nc3cccnc3)ccc2Cl)S(=O)(=O)c2ccccc2O1 [Example 84, (S)-3-(4-Chloro-3-(((R)-4-ethyl-1,1-dioxido-3,4-dihydro-2H-benzo[b][1,4,5]oxathiazepin-2-yl)methyl)phenyl)-3-(1,4-dimethyl-1H-benzo[d][1,2,3]triazol-5-yl)-2,2-dimethyl-N-(pyridin-3-yl)propanamide]	10 to 100
CCCn1nnc2c(C)c([C@H](c3ccc(C)c(CN4C[C@@H](CC)Oc5ccccc5S4(=O)=O)c3)C(C)(C)C(=O)Nc3cccnc3)ccc21 [Example 85, (S)-3-(3-(((R)-4-Ethyl-1,1-dioxido-3,4-dihydro-2H-benzo[b][1,4,5]oxathiazepin-2-yl)methyl)-4-methylphenyl)-2,2-dimethyl-3-(4-methyl-1-propyl-1H-benzo[d][1,2,3]triazol-5-yl)-N-(pyridin-3-yl)propanamide]	10 to 100
CC[C@@H]1CN(Cc2cc([C@@H](c3ccc4c(nnn4CC)c3C)C(C)(C)C(=O)Nc3cnc(Cl)nc3)ccc2C)S(=O)(=O)c2cccnc2O1 [Example 86, (S)—N-(2-Chloropyrimidin-5-yl)-3-(3-(((R)-4-ethyl-1,1-dioxido-3,4-dihydro-2H-pyrido[2,3-b][1,4,5]oxathiazepin-2-yl)methyl)-4-methylphenyl)-3-(1-ethyl-4-methyl-1H-benzo[d][1,2,3]triazol-5-yl)-2,2-dimethylpropanamide]	1 to 10
CC[C@@H]1CN(Cc2cc([C@@H](c3ccc4c(nnn4CC)c3C)C(C)(C)C(N)=O)ccc2C)S(=O)(=O)c2ccccc2O1 [Example 87, (S)-3-(3-(((R)-4-Ethyl-1,1-dioxido-3,4-dihydro-2H-benzo[b][1,4,5]oxathiazepin-2-yl)methyl)-4-methylphenyl)-3-(1-ethyl-4-methyl-1H-benzo[d][1,2,3]triazol-5-yl)-2,2-dimethylpropanamide]	1 to 10
CC[C@H]1Cc2ccc(C(F)(F)F)cc2S(=O)(=O)N(Cc2cc([C@@H](c3ccc4c(nnn4CC)c3C)C(C)(C)C(N)=O)ccc2C)C1 [Example 88, (S)-3-(3-(((S)-4-ethyl-1,1-dioxido-8-(trifluoromethyl)-4,5-dihydrobenzo[f][1,2]thiazepin-2(3H)-yl)methyl)-4-methylphenyl)-3-(1-ethyl-4-methyl-1H-benzo[d][1,2,3]triazol-5-yl)-2,2-dimethylpropanamide]	1 to 10
CC[C@@H]1CN(Cc2cc([C@@H](c3ccc4c(nnn4C)c3C)C(C)(C)C(N)=O)ccc2Cl)S(=O)(=O)c2ccccc2O1 [Example 89, (S)-3-(4-chloro-3-(((R)-4-ethyl-1,1-dioxido-3,4-dihydro-2H-benzo[b][1,4,5]oxathiazepin-2-yl)methyl)phenyl)-3-(1,4-dimethyl-1H-benzo[d][1,2,3]triazol-5-yl)-2,2-dimethylpropanamide]	10 to 100
CC[C@H]1Cc2ccc(C(F)(F)F)cc2S(=O)(=O)N(Cc2cc([C@@H](OCc3cn(CC)nn3)C(C)(C)C(N)=O)ccc2C)C1 [Example 90, (R)-3-(3-(((S)-4-ethyl-1,1-dioxido-8-(trifluoromethyl)-4,5-dihydrobenzo[f][1,2]thiazepin-2(3H)-yl)methyl)-4-methylphenyl)-3-((1-ethyl-1H-1,2,3-triazol-4-yl)methoxy)-2,2-dimethylpropanamide]	100 to 1000
CC[C@@H]1CN(Cc2cc([C@@H](c3ccc4c(nnn4CC)c3C)C(C)(C)C(=O)Nc3cncnc3)ccc2C)S(=O)(=O)c2ccccc2O1 [Example 91, (S)-3-(3-(((R)-4-Ethyl-1,1-dioxido-3,4-dihydro-2H-benzo[b][1,4,5]oxathiazepin-2-yl)methyl)-4-methylphenyl)-3-(1-ethyl-4-methyl-1H-benzo[d][1,2,3]triazol-5-yl)-2,2-dimethyl-N-(pyrimidin-5-yl)propanamide]	1 to 10
CC[C@H]1Cc2ccc(C(F)(F)F)cc2S(=O)(=O)N(Cc2cc([C@@H](c3ccc4c(nnn4CC)c3C)C(C)(C)C(=O)Nc3cncnc3)ccc2C)C1 [Example 92, (S)-3-(3-(((S)-4-Ethyl-1,1-dioxido-8-(trifluoromethyl)-4,5-dihydrobenzo[f][1,2]thiazepin-2(3H)-yl)methyl)-4-methylphenyl)-3-(1-ethyl-4-methyl-1H-benzo[d][1,2,3]triazol-5-yl)-2,2-dimethyl-N-(pyrimidin-5-yl)propanamide]	1 to 10
CC[C@H]1Cc2ccccc2S(=O)(=O)N(Cc2cc([C@@H](c3ccc4c(nnn4CC)c3C)C(C)(C)C(=O)Nc3cncnc3)ccc2C)C1 [Example 93, (S)-3-(3-(((S)-4-Ethyl-1,1-dioxido-4,5-dihydrobenzo[f][1,2]thiazepin-2(3H)-yl)methyl)-4-methylphenyl)-3-(1-ethyl-4-methyl-1H-benzo[d][1,2,3]triazol-5-yl)-2,2-dimethyl-N-(pyrimidin-5-yl)propanamide]	1 to 10
CCn1nnc2c(C)c([C@H](c3ccc(C)c(CN4C[C@@H](C)Cc5cc(C(F)(F)F)ccc5S4(=O)=O)c3)C(C)(C)C(=O)Nc3cncnc3)ccc21 [Example 94, (S)-3-(1-Ethyl-4-methyl-1H-benzo[d][1,2,3]triazol-5-yl)-2,2-dimethyl-3-(4-methyl-3-(((S)-4-methyl-1,1-dioxido-7-(trifluoromethyl)-4,5-dihydrobenzo[f][1,2]thiazepin-2(3H)-yl)methyl)phenyl)-N-(pyrimidin-5-yl)propanamide]	1 to 10
CC[C@H]1Cc2ncccc2S(=O)(=O)N(Cc2cc([C@@H](c3ccc4c(nnn4CC)c3C)C(C)(C)C(=O)Nc3cncnc3)ccc2C)C1 [Example 95, (S)-3-(3-(((S)-4-Ethyl-1,1-dioxido-4,5-dihydropyrido[2,3-f][1,2]thiazepin-2(3H)-yl)methyl)-4-methylphenyl)-3-(1-ethyl-4-methyl-1H-benzo[d][1,2,3]triazol-5-yl)-2,2-dimethyl-N-(pyrimidin-5-yl)propanamide]	1 to 10
CC[C@@H]1CN(Cc2cc([C@@H](c3ccc4c(nnn4CC)c3C)C(C)(C)C(=O)Nc3cncnc3)ccc2C)S(=O)(=O)c2cnccc2O1 [Example 96, (S)-3-(3-(((R)-4-Ethyl-1,1-dioxido-3,4-dihydro-2H-pyrido[4,3-b][1,4,5]oxathiazepin-2-yl)methyl)-4-methylphenyl)-3-(1-ethyl-4-methyl-1H-benzo[d][1,2,3]triazol-5-yl)-2,2-dimethyl-N-(pyrimidin-5-yl)propanamide]	1 to 10
CC[C@@H]1CN(Cc2cc([C@@H](c3ccc4c(nnn4CC)c3C)C(C)(C)C(=O)Nc3cncnc3)ccc2C)S(=O)(=O)c2ccc(Br)cc2O1 [Example 97, (S)-3-(3-(((R)-7-Bromo-4-ethyl-1,1-dioxido-3,4-dihydro-2H-benzo[b][1,4,5]oxathi-azepin-2-yl)methyl)-4-methylphenyl)-3-(1-ethyl-4-methyl-1H-benzo[d][1,2,3]triazol-5-yl)-2,2-dimethyl-N-(pyrimidin-5-yl)propanamide]	1 to 10
CC[C@@H]1CN(Cc2cc([C@@H](c3ccc4c(nnn4CC)c3C)C(C)(C)C(=O)Nc3cncnc3)ccc2C)S(=O)(=O)c2cc(Br)ccc2O1 [Example 98, (S)-3-(3-(((R)-8-Bromo-4-ethyl-1,1-dioxido-3,4-dihydro-2H-benzo[b][1,4,5]oxathi-azepin-2-yl)methyl)-4-methylphenyl)-3-(1-ethyl-4-methyl-1H-benzo[d][1,2,3]triazol-5-yl)-2,2-dimethyl-N-(pyrimidin-5-yl)propanamide]	1 to 10
CC[C@@H]1CN(Cc2cc([C@@H](c3ccc4c(nnn4CC)c3C)C(C)(C)NC(N)=O)ccc2C)S(=O)(=O)c2ccccc2O1 [Example 99, 1-((S)-1-(3-(((R)-4-ethyl-1,1-dioxido-3,4-dihydro-2H-benzo[b][1,4,5]oxathiazepin-2-yl)methyl)-4-methylphenyl)-1-(1-ethyl-4-methyl-1H-benzo[d][1,2,3]triazol-5-yl)-2-methylpropan-2-yl)urea]	100 to 1000
CC[C@@H]1CN(Cc2cc([C@@H](c3ccc4c(nnn4C)c3C)C(C)(C)C(=O)NC3CCOC3)ccc2C)Cc2cnccc2O1 (stereo partly drawn) [Example 100, (3S)-3-(1,4-Dimethyl-1H-benzo[d][1,2,3]triazol-5-yl)-3-(3-(((R)-2-ethyl-2,3-dihydropyrido[3,44][1,4]oxazepin-4(5H)-yl)methyl)-4-methylphenyl)-2,2-dimethyl-N-(tetrahydrofuran-3-yl)propanamide]	100 to 1000
CC[C@@H]1CN(Cc2cc([C@@H](c3ccc4c(nnn4C)c3C)C(C)(C)C(=O)NC3CCS(=O)(=O)C3)ccc2C)Cc2cnccc2O1 (stereo partly drawn) [Example 101, (3S)-3-(1,4-Dimethyl-1H-benzo[d][1,2,3]triazol-5-yl)-N-(1,1-dioxidotetrahydrothio-phen-3-yl)-3-(3-(((R)-2-ethyl-2,3-dihydropyrido[3,4-f][1,4]oxazepin-4(5H)-yl)methyl)-4-methylphenyl)-2,2-dimethylpropanamide]	10 to 100
